The results in this text go back to US12187709B2 (Genentech, Inc., priority 2021, dated 2025).

One experiment has as its target Cbl-b (Homo sapiens (Human), UniProt Q13191). Kind of experiment: Cbl-b LCK Ub TR-FRET assay (Cbl-b Lck HTRF). It counts as biochemical. As to conditions: for IC50: Cbl-b LCK Ub TR-FRET; for fold-selectivity (Cbl-b over C-cbl): ratio C-cbl Lck HTRF IC50 / Cbl-b Lck HTRF IC50. The protocol:
(§1) 6 μL of detection mixture was added to all wells and briefly centrifuged before incubating for 20 min at room temperature. […] IC50 was generated using no LCK as the low control and DMSO as the high control.

The target of a further experiment is c-Cbl (Homo sapiens (Human), UniProt P22681). Kind of experiment: C-Cbl LCK Ub TR-FRET assay (C-cbl Lck HTRF). It counts as biochemical. The protocol:
as §1

As usually defined, the IC50 is the concentration that inhibits the measured activity by half. Read a high IC50 as a need for much substance.

Chain of Cbl-b (Q13191 40-426): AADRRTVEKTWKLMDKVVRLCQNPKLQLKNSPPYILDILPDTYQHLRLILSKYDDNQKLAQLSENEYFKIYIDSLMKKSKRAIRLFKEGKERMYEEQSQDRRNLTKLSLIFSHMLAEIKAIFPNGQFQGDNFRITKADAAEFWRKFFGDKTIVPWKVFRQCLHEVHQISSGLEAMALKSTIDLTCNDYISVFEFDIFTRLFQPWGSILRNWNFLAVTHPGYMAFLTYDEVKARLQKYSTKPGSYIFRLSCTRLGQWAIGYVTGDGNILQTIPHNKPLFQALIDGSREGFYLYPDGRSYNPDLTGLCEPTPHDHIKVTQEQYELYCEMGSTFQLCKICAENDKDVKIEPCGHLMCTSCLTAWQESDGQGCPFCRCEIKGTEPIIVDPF
Chain of c-Cbl (P22681 47-435): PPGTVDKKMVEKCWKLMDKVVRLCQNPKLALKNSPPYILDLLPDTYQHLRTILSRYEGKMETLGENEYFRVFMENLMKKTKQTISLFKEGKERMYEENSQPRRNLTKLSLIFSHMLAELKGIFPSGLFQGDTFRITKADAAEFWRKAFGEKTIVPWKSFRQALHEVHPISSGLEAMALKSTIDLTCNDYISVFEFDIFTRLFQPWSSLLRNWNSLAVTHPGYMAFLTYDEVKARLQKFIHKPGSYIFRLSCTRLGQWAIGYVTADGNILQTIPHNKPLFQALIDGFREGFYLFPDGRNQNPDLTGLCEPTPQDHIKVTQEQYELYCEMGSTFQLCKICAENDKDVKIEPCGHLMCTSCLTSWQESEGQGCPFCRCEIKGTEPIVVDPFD

As for `C[C@H](NC1CCC1)c1cc2c(c(C(F)(F)F)c1)CN(c1cccc(C3(c4nncn4C)CC(F)(F)C3)c1)C2=O` (single isomer, unassigned) [Compound 37], on Cbl-b, inhibition was half-maximal at 0.0066 µM (IC50) and the “fold-selectivity (Cbl-b over C-cbl)” value is recorded as “(1.5x)”. At c-Cbl, it took 0.0099 µM to reach half-maximal inhibition (IC50).

Consider `C[C@@H](NC1CCC1)c1cc2c(c(C(F)(F)F)c1)CN(c1cccc(C3(c4nncn4C)CC(F)(F)C3)c1)C2=O` (single isomer, unassigned) [Compound 38], for which the 50% inhibitory concentration (IC50) on Cbl-b came to 0.011 µM; against c-Cbl, 0.032 µM. Besides, the “fold-selectivity (Cbl-b over C-cbl)” value on Cbl-b is on record as “(2.9x)”.

For `CO[C@H](c1cccc(N2Cc3c(cc(CNC4(C)CCC4)cc3C(F)(F)F)C2=O)c1)c1nncn1C` (single isomer, unassigned) [Compound 42], at Cbl-b, half-maximal inhibition (IC50) was put at 0.18 µM and the “fold-selectivity (Cbl-b over C-cbl)” value was “(1.5x)”. Further, on c-Cbl, the IC50 is 0.27 µM.

Turning to `CO[C@@H](c1cccc(N2Cc3c(cc(CNC4(C)CCC4)cc3C(F)(F)F)C2=O)c1)c1nncn1C` (single isomer, unassigned) [Compound 43], at Cbl-b, the IC50 came to 0.47 µM and the “fold-selectivity (Cbl-b over C-cbl)” value is recorded as “(1.2x)”. The compound further yielded an IC50 against c-Cbl of 0.56 µM.

Consider `Cn1cnnc1[C@@H](OC1CC1)c1cccc(N2Cc3c(cc(CNC4(C)CCC4)cc3C(F)(F)F)C2=O)c1` (single isomer, unassigned) [Compound 44], for which the figures for the IC50 at Cbl-b and against c-Cbl were 4.2 µM and 10 µM, respectively. Further, the “fold-selectivity (Cbl-b over C-cbl)” value at Cbl-b is “(2.4x)”.

For `Cn1cnnc1[C@H](OC1CC1)c1cccc(N2Cc3c(cc(CNC4(C)CCC4)cc3C(F)(F)F)C2=O)c1` (single isomer, unassigned) [Compound 45], at Cbl-b, the IC50 stood at 0.29 µM and the “fold-selectivity (Cbl-b over C-cbl)” value was “(1.4x)”. The compound further showed an IC50 on c-Cbl of 0.41 µM.

With `Cn1cnnc1[C@@H](OC1CCC1)c1cccc(N2Cc3c(cc(CNC4(C)CCC4)cc3C(F)(F)F)C2=O)c1` (single isomer, unassigned) [Compound 46], on Cbl-b, the 50% inhibitory concentration (IC50) was at least 20 µM and the “fold-selectivity (Cbl-b over C-cbl)” value is listed as “(1.0x)”. For the same compound, on c-Cbl, the IC50 amounted to 20 µM.

Take `Cn1cnnc1[C@H](c1cccc(N2Cc3c(cc(CNC4(C)CCC4)cc3C(F)(F)F)C2=O)c1)N1CC(F)(F)C1` (single isomer, unassigned) [Compound 56]: on Cbl-b, half-maximal inhibition (IC50) required 1 µM and the “fold-selectivity (Cbl-b over C-cbl)” value is recorded as “(6.7x)”. This compound returned an IC50 at c-Cbl of 6.7 µM.

In the case of `Cn1cnnc1[C@@H](c1cccc(N2Cc3c(cc(CNC4(C)CCC4)cc3C(F)(F)F)C2=O)c1)N1CC(F)(F)C1` (single isomer, unassigned) [Compound 57], at Cbl-b, the IC50 was determined as 10 µM and the “fold-selectivity (Cbl-b over C-cbl)” value is “(1.9x)”. At c-Cbl, this compound returned an IC50 of 19 µM.

`Cn1cnnc1[C@@]1(c2cccc(N3Cc4c(cc(CNC5(C)CCC5)cc4C(F)(F)F)C3=O)c2)CCC(F)(F)C1` (single isomer, unassigned) [Compound 106]: at Cbl-b, the midpoint of inhibition, the IC50, lay at 0.023 µM and the “fold-selectivity (Cbl-b over C-cbl)” value turned out to be 3.5x. On c-Cbl, this compound returned an IC50 of 0.081 µM.

For `Cc1cnnn1[C@H](c1cccc(N2Cc3c(cc(CNC4(C)CCC4)cc3C(F)(F)F)C2=O)c1)C1COC1` (single isomer, unassigned) [Compound 136], at Cbl-b, the IC50 is at least 20 µM and the “fold-selectivity (Cbl-b over C-cbl)” value stood at 1.0x. The same compound gave an IC50 against c-Cbl of 20 µM.

For `Cn1cnnc1[C@](O)(c1cccc(N2Cc3c(cc(CNC4(C)CCC4)cc3C(F)(F)F)C2=O)c1)C1COC1` (single isomer, unassigned) [Compound 144], the values for the IC50 at Cbl-b and against c-Cbl were 4.5 µM and 8.2 µM, respectively. Moreover, the “fold-selectivity (Cbl-b over C-cbl)” value on Cbl-b turned out to be 1.6x.

With `Cn1cnnc1[C@@H](c1cccc(N2Cc3c(cc(CNC4(C)CCC4)cc3C(F)(F)F)C2=O)c1)C1(O)COC1` (single isomer, unassigned) [Compound 146], at Cbl-b, the IC50 amounted to 4 µM and the “fold-selectivity (Cbl-b over C-cbl)” value is reported as 2.3x. Also, the IC50 on c-Cbl stood at 9.2 µM.

For `Cn1cnnc1C(F)(c1cccc(N2Cc3c(cc(CNC4(C)CCC4)cc3C(F)(F)F)C2=O)c1)C1COC1` (single isomer, unassigned) [Compound 151], on Cbl-b, the IC50 stood at 3.8 µM and the “fold-selectivity (Cbl-b over C-cbl)” value was 2.1x. This compound also had an IC50 on c-Cbl of 7.9 µM.

`Cn1cnnc1[C@](O)(c1ccccc1)c1cccc(N2Cc3c(cc(CNC4(C)CCC4)cc3C(F)(F)F)C2=O)c1` (single isomer, unassigned) [Compound 154]: at Cbl-b, the IC50 was at least 20 µM and the “fold-selectivity (Cbl-b over C-cbl)” value was determined as 1.0x. The half-inhibitory concentration (IC50) on c-Cbl worked out at 20 µM.

For `Cn1cnnc1[C@@](O)(c1ccccc1)c1cccc(N2Cc3c(cc(CNC4(C)CCC4)cc3C(F)(F)F)C2=O)c1` (single isomer, unassigned) [Compound 155], at Cbl-b, half-maximal inhibition (IC50) was put at 10 µM and the “fold-selectivity (Cbl-b over C-cbl)” value is reported as 2.0x. The IC50 at c-Cbl was found to be 10 µM.

For `Cn1cnnc1[C@](F)(c1ccccc1)c1cccc(N2Cc3c(cc(CNC4(C)CCC4)cc3C(F)(F)F)C2=O)c1` (single isomer, unassigned) [Compound 156], the IC50 at Cbl-b turned out to be 7.7 µM; at c-Cbl it was 18 µM. In addition, the “fold-selectivity (Cbl-b over C-cbl)” value at Cbl-b is 2.4x.

For `Cn1cnnc1[C@@](F)(c1ccccc1)c1cccc(N2Cc3c(cc(CNC4(C)CCC4)cc3C(F)(F)F)C2=O)c1` (single isomer, unassigned) [Compound 157], at Cbl-b, the IC50 was at least 20 µM and the “fold-selectivity (Cbl-b over C-cbl)” value was determined as 1.0 x. Moreover, the IC50 at c-Cbl was 20 µM.

Take `Cn1cnnc1[C@H](c1ccccc1)c1cccc(N2Cc3c(Cl)cc(CNC4(C)CCC4)cc3C2=O)c1` (single isomer, unassigned) [Compound 158]: the IC50 amounted to 1.4 µM on Cbl-b and 5 µM on c-Cbl. Also, the “fold-selectivity (Cbl-b over C-cbl)” value on Cbl-b is 3.6 x.

Consider `Cn1cnnc1[C@@H](c1ccccc1)c1cccc(N2Cc3c(Cl)cc(CNC4(C)CCC4)cc3C2=O)c1` (single isomer, unassigned) [Compound 159], for which the half-maximal inhibitory concentration (IC50) against Cbl-b was at least 20 µM; against c-Cbl it was 20 µM. Besides, the “fold-selectivity (Cbl-b over C-cbl)” value at Cbl-b is on record as 1.0x.

In the case of `Cn1cnnc1[C@]1(c2cccc(N3Cc4c(cc(CNC5(C)CCC5)cc4C(F)(F)F)C3=O)c2)C[C@H]([S@+](C)[O-])C1` (single isomer, unassigned) [Compound 162], the IC50 against Cbl-b was 9.1 µM; at c-Cbl, 20 µM. The “fold-selectivity (Cbl-b over C-cbl)” value on Cbl-b is recorded as 2.1x.

On to `Cn1cnnc1[C@]1(c2cccc(N3Cc4c(cc(CNC5(C)CCC5)cc4C(F)(F)F)C3=O)c2)C[C@@H]([S@@+](C)[O-])C1` (single isomer, unassigned) [Compound 163], for which, on Cbl-b, the IC50 was at least 20 µM and the “fold-selectivity (Cbl-b over C-cbl)” value is reported as 1.0x. The compound also yielded an IC50 at c-Cbl of 20 µM.

As for `Cn1cnnc1[C@H](c1cccc(N2Cc3c(cc(CNC4(C)CCC4)cc3C(F)(F)F)C2=O)c1)C1COC1` (single isomer, unassigned) [Compound 165], the figures for the IC50 on Cbl-b and against c-Cbl were 3.9 µM and 10 µM, respectively. Also, the “fold-selectivity (Cbl-b over C-cbl)” value on Cbl-b amounted to 2.3 x.

In the case of `Cn1cnnc1[C@H](c1cccc(N2Cc3c(cc(CNC4(C)CCC4)cc3C(F)(F)F)C2=O)c1)C1CCCCC1` (single isomer, unassigned) [Compound 251], on Cbl-b, half-maximal inhibition (IC50) was put at 0.88 µM and the “fold-selectivity (Cbl-b over C-cbl)” value stood at 1.0x. In addition, at c-Cbl, half-maximal inhibition (IC50) was put at 0.89 µM.

As for `Cn1cnnc1[C@H](CC1CCOCC1)c1cccc(N2Cc3c(cc(CNC4(C)CCC4)cc3C(F)(F)F)C2=O)c1` (single isomer, unassigned) [Compound 252], on Cbl-b, half-maximal inhibition (IC50) was put at 9.1 µM and the “fold-selectivity (Cbl-b over C-cbl)” value came out at 1.4x. Also, at c-Cbl, the IC50 came to 13 µM.

On to `Cn1cnnc1[C@@H](c1cccc(N2Cc3c(cc(CNC4(C)CCC4)cc3C(F)(F)F)C2=O)c1)C1CC(OCC(F)F)C1` (single isomer, unassigned) [Compound 261], for which, at Cbl-b, the midpoint of inhibition, the IC50, lay at 1.3 µM and the “fold-selectivity (Cbl-b over C-cbl)” value worked out at 3.5x. The same compound gave a half-maximal inhibitory concentration (IC50) against c-Cbl of 4.5 µM.

Regarding `CCOC1CC([C@H](c2cccc(N3Cc4c(cc(CNC5(C)CCC5)cc4C(F)(F)F)C3=O)c2)c2nncn2C)C1` (single isomer, unassigned) [Compound 264], at Cbl-b, half-maximal inhibition (IC50) required 5.1 µM and the “fold-selectivity (Cbl-b over C-cbl)” value was 3.9x. In addition, on c-Cbl, the IC50 is at least 20 µM.

Take `CCOC1CC([C@@H](c2cccc(N3Cc4c(cc(CNC5(C)CCC5)cc4C(F)(F)F)C3=O)c2)c2nncn2C)C1` (single isomer, unassigned) [Compound 266]: at Cbl-b, half-maximal inhibition (IC50) was put at 6.7 µM and the “fold-selectivity (Cbl-b over C-cbl)” value turned out to be 3.0x. In addition, the IC50 at c-Cbl was at least 20 µM.

As for `Cn1cnnc1[C@H](c1cccc(N2Cc3c(Cl)cc(CNC4(C)CCC4)cc3C2=O)c1)C1COC1` (single isomer, unassigned) [Compound 271], the IC50 against Cbl-b was determined as 1.8 µM; on c-Cbl, 4.3 µM. For the same compound, the “fold-selectivity (Cbl-b over C-cbl)” value on Cbl-b stood at 2.6x.

Take `Cn1cnnc1[C@@H](C[C@H]1COCCO1)c1cccc(N2Cc3c(cc(CNC4(C)CCC4)cc3C(F)(F)F)C2=O)c1` (single isomer, unassigned) [Compound 295]: the “fold-selectivity (Cbl-b over C-cbl)” value on Cbl-b is reported as 1.0x. At c-Cbl, half-maximal inhibition (IC50) was put at 20 µM.

Take `Cn1cnnc1[C@](F)(c1ccccc1)c1cccc(N2Cc3c(Cl)cc(CNC4(C)CCC4)cc3C2=O)c1` (single isomer, unassigned) [Compound 321]: at Cbl-b, the IC50 was at least 20 µM and the “fold-selectivity (Cbl-b over C-cbl)” value is listed as 1.0x. The compound also came in with a half-inhibitory concentration (IC50) on c-Cbl of 20 µM.

As to `Cn1cnnc1[C@@](F)(c1ccccc1)c1cccc(N2Cc3c(Cl)cc(CNC4(C)CCC4)cc3C2=O)c1` (single isomer, unassigned) [Compound 322], on Cbl-b, the IC50 amounted to 10 µM and the “fold-selectivity (Cbl-b over C-cbl)” value came to 2.0x. The compound further came in with an IC50 against c-Cbl of 20 µM.

Turning to `Cc1cc([C@H](c2nncn2C)C2COC2)cc(N2Cc3c(cc(CNC4(C)CCC4)cc3C(F)(F)F)C2=O)c1` (single isomer, unassigned) [Compound 332], at Cbl-b, the IC50 was 16 µM and the “fold-selectivity (Cbl-b over C-cbl)” value turned out to be 1.3x. This compound also came in with an IC50 against c-Cbl of 20 µM.
